Measurements as given in PubChem BioAssay (NCI).
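Dose response: 5 concentrations. Exposure: 48 h. Format: 96-well plates. Endpoint: linear interpolation; highest concentration if not reached. TGI marks complete inhibition of growth.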

How the values were obtained:
Experiment in all cases: growth of human tumour cells (NCI), 48 h
[1] = tested on: 786-0 renal
[2] = tested on: A498 renal
[3] = tested on: A549 NSCLC
[4] = tested on: ACHN renal
[5] = tested on: BT-549 breast
[6] = tested on: CAKI-1 renal
[7] = tested on: CCRF-CEM leukemia
[8] = tested on: COLO 205 colon
[9] = tested on: DU-145 prostate
[10] = tested on: EKVX NSCLC
[11] = tested on: HCC-2998 colon
[12] = tested on: HCT-116 colon
[13] = tested on: HCT-15 colon
[14] = tested on: HL-60(TB) leukemia
[15] = tested on: HOP-62 NSCLC
[16] = tested on: HOP-92 NSCLC
[17] = tested on: HS 578T breast
[18] = tested on: HT29 colon
[19] = tested on: IGROV1 ovarian
[20] = tested on: K-562 leukemia
[21] = tested on: KM12 colon
[22] = tested on: LOX IMVI melanoma
[23] = tested on: M14 melanoma
[24] = tested on: MALME-3M melanoma
[25] = tested on: MCF7 breast
[26] = tested on: MDA-MB-231 breast
[27] = tested on: MDA-MB-435
[28] = tested on: MDA-N
[29] = tested on: MOLT-4 leukemia
[30] = tested on: NCI-H226 lung
[31] = tested on: NCI-H23 lung
[32] = tested on: NCI-H460 lung
[33] = tested on: NCI-H522 lung
[34] = tested on: NCI/ADR-RES ovarian
[35] = tested on: OVCAR-3 ovarian
[36] = tested on: OVCAR-4 ovarian
[37] = tested on: OVCAR-5 ovarian
[38] = tested on: OVCAR-8 ovarian
[39] = tested on: PC-3 prostate
[40] = tested on: RPMI-8226 leukemia
[41] = tested on: RXF 393 renal
[42] = tested on: SF-268 CNS
[43] = tested on: SF-295 CNS
[44] = tested on: SF-539 CNS
[45] = tested on: SK-MEL-2 melanoma
[46] = tested on: SK-MEL-28 melanoma
[47] = tested on: SK-MEL-5 melanoma
[48] = tested on: SK-OV-3 ovarian
[49] = tested on: SN12C renal
[50] = tested on: SNB-19 CNS
[51] = tested on: SNB-75 CNS
[52] = tested on: SR leukemia
[53] = tested on: SW-620 colon
[54] = tested on: T-47D breast
[55] = tested on: TK-10 renal
[56] = tested on: U251 CNS
[57] = tested on: UACC-257 melanoma
[58] = tested on: UACC-62 melanoma
[59] = tested on: UO-31 renal

Measured: TGI

COc1ccc(/C=N/c2nc3cc4sc(/N=C/c5ccc(OC)cc5)nc4cc3s2)cc1
99.5 µM: [27]
> 81.8 µM: [17]
> 22.4 µM: [8]
> 52.7 µM: [33]
97.7 µM: [31]
> 88.9 µM: [25]
71.4 µM: [11]
> 45.2 µM: [7]
> 77.8 µM: [30]
> 94.8 µM: [55]
> 100 µM: all other assays above
